The values below come from patent US12692267B2 (Madera Therapeutics, LLC, priority 2019, dated 2026).

Assay [1] has as its system MDA-MB-231 (MDA 231, human breast adenocarcinoma). Put plainly: Cancer cell viability, CCK-8, MDA-MB-231. The assay is classed as cell-based. To be noted: MDA 231, 48 hours, CCK-8; for IC50: read-out: IC50 (uM, MDA 231); for EC50: read-out: EC50 (uM, MDA 231). The method, then: (§1) Cancer cell lines. […] The plate is incubated for 48 hours.
(§2) CCK-8 solution is added directly to the cells.

Assay [2] relates to HCT116 (human colon cancer). Briefly: Cancer cell viability, CCK-8, HCT116. The assay is classed as cell-based. To be noted: HCT116, 48 hours, CCK-8; for IC50: read-out: IC50 (uM, HCT116); for EC50: read-out: EC50 (uM, HCT116). The procedure: as §1, §2
The target in assay [3] is recombinant human caseinolytic peptidase hClpP (Homo sapiens, UniProt Q16740). Put plainly: hClpP peptide hydrolysis assay (Ac-WLA-AMC). The following applies: for Dose-dependency of hClpP activation: Protocol 2, purified hClpP, Ac-WLA-AMC; for Time course of hClpP activity: 1 uM, Protocol 2.
recombinant human caseinolytic peptidase hClpP, sequence (Q16740 57-277): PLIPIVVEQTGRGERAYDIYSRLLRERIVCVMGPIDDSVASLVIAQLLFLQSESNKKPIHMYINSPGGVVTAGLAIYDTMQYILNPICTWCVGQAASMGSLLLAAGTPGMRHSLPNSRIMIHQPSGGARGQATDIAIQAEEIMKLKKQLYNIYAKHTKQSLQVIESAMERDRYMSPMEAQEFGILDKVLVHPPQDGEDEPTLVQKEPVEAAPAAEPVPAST
Description: Briefly, the activity of recombinant hClpP proteolytic subunit (1 μg/mL) was measured in the assay buffer composed of 50 mM Tris, 10 mM MgCl2, 100 mM KCl, 1 mM DTT, 4 mM ATP, 0.02% Triton X-100 and 5% Glycerol, pH 8.0 (HCl) using 10 µM of fluorogenic Ac-WLA-AMC substrate as described in references above. […] Using the first protocol (Protocol 1), the reaction was initiated by immediately mixing enzyme and substrate in the presence of indicated doses of compounds. Applying a second protocol (Protocol 2), the enzyme and compounds were mixed and incubated in assay buffer for 60 min before initiating the reaction by adding Ac-WLA-ACM substrate.
Enzymatic activity of hClpP was measured in assay buffer (as described in Experimental Procedure/Materials and Methods) and the level of fluorescence of liberated coumarin monitored continuously.

Where two headings read alike, the source gives them in different places.

The IC50 is the concentration that gives 50% inhibition. On to `O=C1C2=C(CCN(Cc3cccc(OC(F)(F)F)c3)C2)N2CCN=C2N1Cc1ccc(C(F)(F)F)cc1` [Example 3], for which the IC50 in assay [1] amounted to 0.27 µM; in assay [2], 0.36 µM.
The EC50 is the concentration needed to bring the measured effect to its halfway point. For the compound `Cn1c2c(c(=O)n(Cc3ccc(C(F)(F)F)cc3)c1=O)CN(Cc1cccc(Cl)c1)CC2` [Example 56], the EC50 in assay [1] was 0.29 µM; in assay [2] it was 0.098 µM.
Regarding `CC1(C)CN=C2N(Cc3ccc(Cl)cc3)C(=O)C3=C(CCN(Cc4cccc(C#N)c4)C3)N2C1` [Example 70, 3-({9-[(4-chlorophenyl)methyl]-13,13-dimethyl-8-oxo-1,5,9,11-tetraazatricyclo[8.4.0.0^2,7]tetradeca-2 (7), 10-dien-5-yl}methyl)benzonitrile], the EC50 in assay [2] (Homo sapiens, HCT-116, 48 h) turned out to be 1.4 µM.
As for `N#Cc1cccc(CN2CC3=C(C2)N2CCN=C2N(Cc2ccc(Br)cc2)C3=O)c1` [Example 76, 3-({8-[(4-bromophenyl)methyl]-7-oxo-1,4,8,10-tetraazatricyclo[7.3.0.0^2,6}dodeca-2(6),9-dien-4-yl}methyl)benzonitrile], the EC50 in assay [2] (Homo sapiens, HCT-116, 48 h) was 0.003 µM.
Turning to `N#Cc1cccc(CN2CCC3=C(C2)C(=O)N(Cc2ccc(Cl)cc2)C2=NCC(F)(F)CN23)c1` [Example 71, 3-({9-[(4-chlorophenyl)methyl]-13,13-difluoro-8-oxo-1,5,9,11-tetraazatricyclo[8.4.0.0^2,7]tetradeca-2 (7), 10-dien-5-yl}methyl)benzonitrile], the EC50 in assay [2] (Homo sapiens, HCT-116, 48 h) turned out to be 0.244 µM.
For the compound `Cn1c2c(c(=O)n(Cc3cccc(C(F)(F)F)c3)c1=O)CN(Cc1ccccc1)CC2` [Example 39], the EC50 amounted to 1.1 µM in assay [1] (Homo sapiens, MDA-MB-231) and 1.4 µM in assay [2] (Homo sapiens, HCT-116, 48 h).
Taken in the same sequence, the figures for `N#Cc1cccc(Cc2nnc(C(=O)NCc3ccc(Cl)cc3)o2)c1` [Example 63, N-[(4-chlorophenyl)methyl]-5-[(3-cyanophenyl)methyl]-1,3,4-oxadiazole-2-carboxamide] were 5 µM and 4 µM.
With `O=C1C2=C(CCN(Cc3cccc(Cl)c3)C2)N2CCN=C2N1Cc1ccc(C(F)(F)F)cc1` [Example 27], the IC50 was determined as 0.016 µM in assay [1] (Homo sapiens, MDA-MB-231) and 0.016 µM in assay [2] (Homo sapiens, HCT-116, 48 h).
Take `N#Cc1cccc(CN2CC3=C(C2)N2CCN=C2N(Cc2ccc(Cl)cc2)C3=O)c1` [Ex. 66]: in assay [2] (Homo sapiens, HCT-116, 48 h), the EC50 amounted to 0.0055 µM. Further, the “Dose-dependency of hClpP activation” value in assay [3] is reported as “Dose-dependent increases in hClpP activity”.
Taken in the same sequence, the figures for `N#Cc1cccc(CC2CCC3=C(C2)C(=O)N(Cc2ccc(C(F)(F)F)cc2)C2=NCCN23)c1` (centres unmarked) [Ex. 67, 3-[(5-oxo-4-{[4-(trifluoromethyl)phenyl]methyl}-1H,2H,4H,5H,6H,7H,8H,9H-imidazo[1,2-a]quinazolin-7-yl)methyl]benzonitrile] were 1.2 µM and “Dose-dependent increases in hClpP activity”.
The corresponding values for `N#Cc1cccc(CC2CCC3=C(C2)C(=O)N(Cc2ccc(Cl)cc2)C2=NCCN23)c1` (centres unmarked) [Ex. 68, 3-({4-[(4-chlorophenyl)methyl]-5-oxo-1H,2H,4H,5H,6H,7H,8H,9H-imidazo[1,2-a]quinazolin-7-yl}methyl)benzonitrile] are 1.5 µM and “Dose-dependent increases in hClpP activity”.
As to `Cc1nc2c(c(=O)n1Cc1ccc(Br)cc1)CN(Cc1cccc(C#N)c1)CC2` [Example 72, 3-({3-[(4-bromophenyl)methyl]-2-methyl-4-oxo-3H,4H,5H,6H,7H,8H-pyrido[4,3-d]pyrimidin-6-yl}methyl)benzonitrile], the EC50 in assay [2] (Homo sapiens, HCT-116, 48 h) was 0.077 µM.
On to `O=C1C2=C(CN(Cc3ccccc3)C2)N2CCN=C2N1Cc1ccc(Cl)cc1` [Example 80, 4-benzyl-8-[(4-chlorophenyl)methyl]1,4,8,10-tetraazatricyclo[7.3.0.0^2,6]dodeca-2 (6),9-diene-7-one], for which, in assay [2] (Homo sapiens, HCT-116, 48 h), the EC50 amounted to 0.011 µM. The “Time course of hClpP activity” value in assay [3] is reported as “time-dependent increase in hClpP activity”.
On to `O=C1C2=C(CN(Cc3ccccc3)C2)N2CCN=C2N1Cc1ccc(C(F)(F)F)cc1` [Example 82, 4-benzyl-8-{[4-(trifluoromethyl)phenyl]methyl}1,4,8,10-tetraazatricyclo[7.3.0.0^2,6]dodeca-2 (6), 9-diene-7-one], for which the EC50 in assay [2] (Homo sapiens, HCT-116, 48 h) was determined as 0.01 µM. For the same compound, the “Time course of hClpP activity” value in assay [3] is “time-dependent increase in hClpP activity”.
With `Cc1nc2c(c(=O)n1Cc1ccc(C(F)(F)F)cc1)CN(Cc1cccc(C#N)c1)CC2` [Example 73, 3-[(2-methyl-4-oxo-3-{[4-(trifluoromethyl)phenyl]methyl}-3H,4H,5H,6H,7H,8H-pyrido[4,3-d]pyrimidin-6-yl)methyl]benzonitrile], in assay [2] (Homo sapiens, HCT-116, 48 h), the EC50 stood at 0.069 µM.
Take `N#Cc1ccc(CN2CCC3=C(C2)C(=O)N(Cc2ccc(Cl)cc2)C2=NCCN23)cc1` [Example 22]: the IC50 in assay [1] (Homo sapiens, MDA-MB-231) was determined as 3.4 µM; in assay [2] (Homo sapiens, HCT-116, 48 h), 1.8 µM.
`N#Cc1cccc(CN2CCC3=C(C2)C(=O)N(Cc2ccc(Br)cc2)C2=NCCCN23)c1` [Example 84, 3-({9-[(4-bromophenyl)methyl]-8-oxo-1,5,9,11-tetraazatricyclo[8.4.0.0 ^2,7]tetradeca-2(7), 10-dien-5yl}methyl)benzonitrile]: the EC50 in assay [2] (Homo sapiens, HCT-116, 48 h) came to 0.013 µM. Also, the “Time course of hClpP activity” value in assay [3] was “time-dependent increase in hClpP activity”.
Turning to `N#Cc1cccc(CN2CCc3ncn(Cc4ccc(Br)cc4)c(=O)c3C2)c1` [Example 74, 3-({3-[(4-bromophenyl)methyl]-4-oxo-3H,4H,5H,6H,7H,8H-pyrido[4,3-d]pyrimidin-6-yl}methyl)benzonitrile], the EC50 in assay [2] (Homo sapiens, HCT-116, 48 h) stood at 0.02 µM.
`O=C1C2=C(CN(Cc3ccccc3)C2)N2CCN=C2N1Cc1ccc(Br)cc1` [Example 81, 4-benzyl-8-[(4-bromophenyl)methyl]1,4,8,10-tetraazatricyclo[7.3.0.0^2,6]dodeca-2 (6),9-diene-7-one]: in assay [2] (Homo sapiens, HCT-116, 48 h), the EC50 came out at 0.039 µM. Besides, in assay [3], the “Time course of hClpP activity” value is “time-dependent increase in hClpP activity”.
Turning to `N#Cc1cccc(CN2CCc3c(c(=O)n(Cc4ccc(C(F)(F)F)cc4)c(=O)n3CCCCN)C2)c1` [Example 58, 3-((1-(4-aminobutyl)-2,4-dioxo-3-(4-(trifluoromethyl)benzyl)-1,2,3,4,7,8-hexahydropyrido[4,3-d]pyrimidin-6 (5H)-yl)methyl)benzonitrile], the EC50 in assay [2] (Homo sapiens, HCT-116, 48 h) is 0.23 µM.
Regarding `CC#Cc1cccc(CN2CCc3ncn(Cc4ccc(C(F)(F)F)cc4)c(=O)c3C2)c1` [Example 79], the EC50 in assay [2] (Homo sapiens, HCT-116, 48 h) turned out to be 5.7 µM.
For `N#Cc1cccc(CN2CC3=C(C2)N2CCN=C2N(Cc2ccc(C(F)(F)F)cc2)C3=O)c1` [Example 77, 3-[(7-oxo-8-{[4-(trifluoromethyl)phenyl]methyl}-1,4,8,10-tetraazatricyclo[7.3.0.0^2,6]dodeca-2 (6),9-dien-4-yl)methyl]benzonitrile], in assay [2] (Homo sapiens, HCT-116, 48 h), the EC50 was found to be 0.0021 µM.
Take `N#Cc1cccc(CN2CCC3=C(C2)C(=O)N(Cc2ccc(C(F)(F)F)cc2)C2=NCCCN23)c1` [Ex. 62, 3-[(8-oxo-9-{[4-(trifluoromethyl)phenyl]methyl}-1,5,9,11-tetraazatricyclo[8.4.0.0^2,7]tetradeca-2(7),10-dien-5-yl)methyl]benzonitrile]: the EC50 in assay [1] (Homo sapiens, MDA-MB-231) amounted to 0.021 µM; in assay [2] (Homo sapiens, HCT-116, 48 h), 0.022 µM. In addition, in assay [3], the “Dose-dependency of hClpP activation” value is given as “Dose-dependent increases in hClpP activity”.
On to `Cc1nc2c(c(=O)n1Cc1ccc(Cl)cc1)CN(Cc1cccc(C#N)c1)CC2` [Example 61, 3-({3-[(4-chlorophenyl)methyl]-2-methyl-4-oxo-3H,4H,5H,6H,7H,8H-pyrimidin-6-yl}methyl)benzonitrile], for which the EC50 stood at 0.096 µM in assay [1] (Homo sapiens, MDA-MB-231) and 0.097 µM in assay [2] (Homo sapiens, HCT-116, 48 h).
Consider `N#Cc1cccc(CN2CCC3=C(C2)C(=O)N(Cc2ccc(Cl)cc2)C2=NCCCN23)c1` [Example 83, 3-({9-[(4-chlorophenyl)methyl]-8-oxo-1,5,9,11-tetraazatricyclo[8.4.0.0 ^2,7]tetradeca-2(7), 10-dien-5yl}methyl)benzonitrile], for which the EC50 in assay [2] (Homo sapiens, HCT-116, 48 h) was found to be 0.28 µM. In addition, the “Time course of hClpP activity” value in assay [3] is given as “time-dependent increase in hClpP activity”.
On to `O=C1CCc2ccc(CN3CCC4=C(C3)C(=O)N(Cc3ccc(Cl)cc3)C3=NCCN34)cc21` [Example 64, 7-[(4-chlorophenyl)methyl]-11-[(3-oxo-2,3-dihydro-1H-inden-5-yl)methyl]-2,5,7,11-tetraazatricyclo[7.4.0.0^2,6]trideca-1(9),5-dien-8-one], for which the EC50 in assay [2] (Homo sapiens, HCT-116, 48 h) came out at 10.5 µM.
Same read-out and setting: in the case of `N#Cc1cccc(CN2CCc3ncn(Cc4ccc(C(F)(F)F)cc4)c(=O)c3C2)c1` [Example 75, 3-[(4-oxo-3-{[4-(trifluoromethyl)phenyl]methyl}-3H,4H,5H,6H,7H,8H-pyrido[4,3-d]pyrimidin-6-yl)methyl]benzonitrile] it was 0.098 µM; in that of `Cc1nc2c(c(=O)n1Cc1ccc(Cl)cc1)CN(Cc1cccc(C#N)c1)C2` [Example 69, 3-({3-[(4-chlorophenyl)methyl]-2-methyl-4-oxo-3H,4H,5H,6H,7H-pyrrolo[3,4-d]pyrimidin-6-yl}methyl)benzonitrile], 0.097 µM.
In the case of `O=C(NCc1ccc2c(c1)OCO2)c1nnc(Cc2ccc(F)cc2Cl)o1` [Ex. 1, reference compound], in assay [3], the “Dose-dependency of hClpP activation” value is listed as “dose-dependent increases in hClpP activity”.
`CC#Cc1cccc(CN2CCc3ncn(Cc4ccc(Br)cc4)c(=O)c3C2)c1` [Example 78]: the EC50 in assay [2] (Homo sapiens, HCT-116, 48 h) turned out to be 5.2 µM.
